Each structure is given as a SMILES string.

The target in this experiment is T1, MuSK(cyto) (Rattus norvegicus, UniProt Q62838).
T1 sequence (Q62838 529-868): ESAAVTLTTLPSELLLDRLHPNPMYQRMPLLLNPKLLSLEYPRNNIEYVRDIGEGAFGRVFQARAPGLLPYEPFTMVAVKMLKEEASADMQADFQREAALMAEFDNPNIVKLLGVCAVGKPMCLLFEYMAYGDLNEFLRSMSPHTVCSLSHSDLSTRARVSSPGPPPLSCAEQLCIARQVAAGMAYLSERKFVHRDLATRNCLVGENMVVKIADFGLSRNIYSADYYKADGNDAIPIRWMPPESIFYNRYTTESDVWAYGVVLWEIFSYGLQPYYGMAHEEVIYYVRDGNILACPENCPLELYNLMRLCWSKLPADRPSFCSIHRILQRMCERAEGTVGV
Description: autophosphorylation, anti-pTyr754 immunoblot. It counts as biochemical. Particulars: 5 mM ATP, 50 mM MgCl2, 25 mM Tris-HCl pH 7.5, 0.5 mM sodium vanadate, 10 mM TCEP, room temperature; MuSK alone, no Dok7. (In general: A western blot detects proteins with antibodies after separation by electrophoresis.)

`Nc1ncnc2c1ncn2[C@@H]1O[C@H](COP(=O)(O)OP(=O)(O)OP(=O)(O)O)[C@@H](O)[C@H]1O` [ATP]: the “autophosphorylation, anti-pTyr754 immunoblot” value is “With MuSK alone, incubation with Mg-ATP results in a relatively slow rate of autophosphorylation”.

Values taken from paper PMC2917201 (Molecular cell, 2010).
